Test results from PubChem BioAssay AID248 (DTP/NCI, 2004).
Where “and” joins values, the source holds several entries; their conditions need not be identical. Identical values can stand only once. Toxic doses and inconclusive results are not listed. Rule as the data show it: active = T/C of 150% or more; inactive = T/C below 125%.

Tested on: L1210 leukemia ip in BDF1 mice, survival T/C
Assay: NCI In Vivo Anticancer Drug Screen. Data for tumor model L1210 Leukemia (intraperitoneal) in B6D2F1 (BDF1) mice
Conditions: endpoint: mean survival time, higher = longer survival
Procedure, shortened: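 Value reflects the ratio of survival in compound-treated mice to survival in vehicle-treated controls, with both groups carrying the same transplanted tumor.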

[1] = dose: 200.0 mg/kg/injection, schedule: Q04DX003 (ip), vehicle: Klucel (hydroxypropylcellulose) (HPC)
[2] = dose: 400.0 mg/kg/injection, schedule: Q04DX003 (ip), vehicle: Klucel (hydroxypropylcellulose) (HPC)
[3] = dose: 50.0 mg/kg/injection, schedule: Q01DX009 (ip), vehicle: saline with Tween-80
[4] = dose: 100.0 mg/kg/injection, schedule: Q01DX009 (ip), vehicle: saline with Tween-80
[5] = dose: 100.0 mg/kg/injection, schedule: Q04DX003 (ip), vehicle: Klucel (hydroxypropylcellulose) (HPC)
[6] = dose: 100.0 mg/kg/injection, schedule: Q04DX003 (ip), vehicle: saline
[7] = dose: 200.0 mg/kg/injection, schedule: Q04DX003 (ip), vehicle: saline
[8] = dose: 400.0 mg/kg/injection, schedule: Q04DX002 (ip), vehicle: saline with Tween-80
[9] = dose: 100.0 mg/kg/injection, schedule: Q04DX003 (ip), vehicle: saline with Tween-80
[10] = dose: 200.0 mg/kg/injection, schedule: Q04DX003 (ip), vehicle: saline with Tween-80
[11] = dose: 400.0 mg/kg/injection, schedule: Q04DX003 (ip), vehicle: saline with Tween-80
[12] = dose: 100.0 mg/kg/injection, schedule: Q04DX002 (ip), vehicle: saline with Tween-80
[13] = dose: 100.0 mg/kg/injection, schedule: Q01DX009 (ip), vehicle: Klucel (hydroxypropylcellulose) (HPC)
[14] = dose: 200.0 mg/kg/injection, schedule: Q01DX009 (ip), vehicle: Klucel (hydroxypropylcellulose) (HPC)
[15] = dose: 400.0 mg/kg/injection, schedule: Q01DX009 (ip), vehicle: Klucel (hydroxypropylcellulose) (HPC)
[16] = dose: 200.0 mg/kg/injection, schedule: Q04DX002 (ip), vehicle: saline with Tween-80
[17] = dose: 200.0 mg/kg/injection, schedule: Q01DX009 (ip), vehicle: saline with Tween-80
[18] = dose: 400.0 mg/kg/injection, schedule: Q01DX009 (ip), vehicle: saline with Tween-80

Measured: T/C

Cc1cc(C)n(/N=C/c2ccc3c(c2)CCC3)c(=O)c1C#N
inactive: [1] 95 % of control | [2] 90 % of control

CC(C)(CCCO)c1ccccc1
inactive: [3] 96 % of control | [4] 104 % of control

CC(C)C(C)/C=C\C(C)C1CCC2C3=CCC4CC(=O)CCC4(C)C3CCC21C (stereo unspecified)
inactive: dose: 50.0 mg/kg/injection, schedule: Q01DX001 (ip), vehicle: Klucel (hydroxypropylcellulose) (HPC) 88 % of control | dose: 100.0 mg/kg/injection, schedule: Q01DX001 (ip), vehicle: Klucel (hydroxypropylcellulose) (HPC) 93 % of control | dose: 200.0 mg/kg/injection, schedule: Q01DX001 (ip), vehicle: Klucel (hydroxypropylcellulose) (HPC) 88 % of control | dose: 400.0 mg/kg/injection, schedule: Q01DX001 (ip), vehicle: Klucel (hydroxypropylcellulose) (HPC) 97 % of control

O=S(=O)(O)c1ccc(O)cc1
inactive: dose: 50.0 mg/kg/injection, schedule: Q04DX003 (ip), vehicle: Klucel (hydroxypropylcellulose) (HPC) 98 % of control | dose: 100.0 mg/kg/injection, schedule: Q01DX009 (ip), vehicle: saline 110 % of control | [5] 104 % of control | [6] 114 % of control | dose: 200.0 mg/kg/injection, schedule: Q01DX009 (ip), vehicle: saline 107 % of control | [1] 124 % of control | [7] 97 % of control | dose: 400.0 mg/kg/injection, schedule: Q01DX009 (ip), vehicle: saline 101 % of control | dose: 400.0 mg/kg/injection, schedule: Q04DX003 (ip), vehicle: saline 101 % of control

O=C(CNc1ccc2c(c1)Cc1cc(Br)ccc1-2)c1ccc(Br)cc1
inactive: dose: 100.0 mg/kg/injection, schedule: Q01DX001 (ip), vehicle: carboxymethylcellulose (CMC) 105 % of control | dose: 200.0 mg/kg/injection, schedule: Q01DX001 (ip), vehicle: carboxymethylcellulose (CMC) 111 % of control | dose: 400.0 mg/kg/injection, schedule: Q01DX001 (ip), vehicle: carboxymethylcellulose (CMC) 105 % of control

O=C(O)c1c(F)c(F)c(O)c(F)c1F
inactive: dose: 25.6 mg/kg/injection, schedule: Q04DX002 (ip), vehicle: saline with Tween-80 103 % of control | dose: 64.0 mg/kg/injection, schedule: Q04DX002 (ip), vehicle: saline with Tween-80 110 % of control | dose: 160.0 mg/kg/injection, schedule: Q04DX002 (ip), vehicle: saline with Tween-80 89 % of control | [8] 103 % of control

O=C(NC1CCC(CC2CCCCC2)CC1)c1ccccc1 (stereo unspecified)
inactive: [9] 92 % of control | [10] 97 % of control | [11] 113 % of control

Cc1onc(-c2ccccc2Cl)c1C(=O)NC(=S)NC1CC(C)CC(C)(C)C1 (stereo unspecified)
inactive: dose: 25.0 mg/kg/injection, schedule: Q04DX002 (ip), vehicle: saline with Tween-80 97 % of control | dose: 50.0 mg/kg/injection, schedule: Q04DX002 (ip), vehicle: saline with Tween-80 90 % of control | [12] 90 % of control

CCCCCCCCCCCCCCCCCCNC(=O)Nc1ccc(C(C)C)cc1
inactive: [13] 95 % of control | [5] 89 % of control | [14] 92 % of control | [1] 89 % of control | [15] 92 % of control

COCCOCC(=O)O
inactive: [12] 101 % of control | [16] 96 % of control | [8] 108 % of control

CC(=O)c1cc2cc(Br)ccc2oc1=O
inactive: [13] 98 % of control | [14] 88 % of control | [15] 96 % of control

O=C(COc1ccc(Cl)cc1Cl)Oc1c(Cl)c(Cl)c(Cl)c(Cl)c1Cl
inactive: [4] 88 % of control | [9] 91 % of control | [17] 88 % of control | [10] 92 % of control | [18] 92 % of control | [11] 86 % of control

NC1=NCC(CSS(=O)(=O)O)S1 (stereo unspecified)
inactive: dose: 5.0 mg/kg/injection, schedule: Q01DX009 (ip), vehicle: saline 95 % of control | dose: 10.0 mg/kg/injection, schedule: Q01DX001 (ip), vehicle: saline 101 % of control | dose: 10.0 mg/kg/injection, schedule: Q01DX009 (ip), vehicle: saline 89 % of control | dose: 10.0 mg/kg/injection, schedule: Q04DX003 (ip), vehicle: saline 96 % of control | dose: 20.0 mg/kg/injection, schedule: Q01DX001 (ip), vehicle: saline 93 % of control | dose: 20.0 mg/kg/injection, schedule: Q01DX009 (ip), vehicle: saline 106 % of control | dose: 20.0 mg/kg/injection, schedule: Q04DX003 (ip), vehicle: saline 105 % of control | dose: 29.0 mg/kg/injection, schedule: Q01DX009 (ip), vehicle: saline 90 % of control | dose: 40.0 mg/kg/injection, schedule: Q01DX001 (ip), vehicle: saline 95 % of control | dose: 40.0 mg/kg/injection, schedule: Q04DX003 (ip), vehicle: saline 97 % of control

O=C(c1ccccc1)c1ccc(Oc2ccc(C(=O)c3ccccc3)cc2)cc1
inactive: dose: 75.0 mg/kg/injection, schedule: Q04DX003 (ip), vehicle: Klucel (hydroxypropylcellulose) (HPC) 94 % of control | [5] 101 % of control | dose: 150.0 mg/kg/injection, schedule: Q04DX003 (ip), vehicle: Klucel (hydroxypropylcellulose) (HPC) 96 % of control | [1] 96 % of control | dose: 300.0 mg/kg/injection, schedule: Q04DX003 (ip), vehicle: Klucel (hydroxypropylcellulose) (HPC) 107 % of control | [2] 95 % of control

CN1CCS(=O)(=O)C1=O
inactive: dose: 9.5 mg/kg/injection, schedule: Q01DX001 (ip), vehicle: saline 98 % of control | dose: 19.0 mg/kg/injection, schedule: Q01DX001 (ip), vehicle: saline 98 % of control | dose: 38.0 mg/kg/injection, schedule: Q01DX001 (ip), vehicle: saline 109 % of control

O=C(O)CC1CCCCC1c1ccccc1 (stereo unspecified)
inactive: [13] 98 % of control | [5] 96 % of control | [14] 100 % of control | [1] 106 % of control | [15] 87 % of control | [2] 95 % of control

O=C1OC(/C=C/c2ccccc2)=NC/1=C\c1cc(Br)ccc1O
inactive: [12] 104 % of control | [16] 95 % of control and 97 % of control | [8] 104 % of control and 114 % of control

CC(=O)C(C(C)=O)C1C=CC=CC=C1
inactive: [3] 93 % of control | [4] 104 % of control | [6] 95 % of control | [17] 86 % of control | [7] 122 % of control

COc1ccc(Cl)cc1N
inactive: [13] 86 % of control | [4] 100 % of control | [5] 93 % of control | [17] 94 % of control | [1] 92 % of control | [18] 104 % of control

OC1C2C=CC1C1C=CC1=CC2 (stereo unspecified)
inactive: dose: 50.0 mg/kg/injection, schedule: Q01DX001 (ip), vehicle: saline with Tween-80 103 % of control | dose: 100.0 mg/kg/injection, schedule: Q01DX001 (ip), vehicle: saline with Tween-80 108 % of control | dose: 200.0 mg/kg/injection, schedule: Q01DX001 (ip), vehicle: saline with Tween-80 98 % of control

[C-]#[N+]CCCCCC
inactive: dose: 3.12 mg/kg/injection, schedule: Q04DX003 (sc), vehicle: olive oil, sesame oil, peanut oil 101 % of control | dose: 4.21 mg/kg/injection, schedule: Q01DX009 (ip), vehicle: olive oil, sesame oil, peanut oil 92 % of control | dose: 6.25 mg/kg/injection, schedule: Q04DX003 (sc), vehicle: olive oil, sesame oil, peanut oil 93 % of control | dose: 8.43 mg/kg/injection, schedule: Q01DX009 (sc), vehicle: olive oil, sesame oil, peanut oil 112 % of control | dose: 12.5 mg/kg/injection, schedule: Q04DX003 (sc), vehicle: olive oil, sesame oil, peanut oil 88 % of control | dose: 16.87 mg/kg/injection, schedule: Q01DX009 (sc), vehicle: olive oil, sesame oil, peanut oil 112 % of control | dose: 18.0 mg/kg/injection, schedule: Q04DX003 (sc), vehicle: other 104 % of control | dose: 28.0 mg/kg/injection, schedule: Q04DX003 (sc), vehicle: other 101 % of control | dose: 40.0 mg/kg/injection, schedule: Q04DX003 (sc), vehicle: other 108 % of control | dose: 60.0 mg/kg/injection, schedule: Q04DX003 (sc), vehicle: olive oil, sesame oil, peanut oil 111 % of control | dose: 90.0 mg/kg/injection, schedule: Q04DX003 (sc), vehicle: olive oil, sesame oil, peanut oil 100 % of control | dose: 135.0 mg/kg/injection, schedule: Q04DX003 (sc), vehicle: olive oil, sesame oil, peanut oil 109 % of control
